Measured values published in ChEMBL document CHEMBL5360666, “Inhibition Profiles of Some Novel Sulfonamide-Incorporated α-Aminophosphonates on Human Carbonic Anhydrases” (ACS Med Chem Lett, 2023).

The compounds below were run against Carbonic anhydrase 1 (Homo sapiens, UniProt P00915) (assay: Inhibition of human carbonic anhydrase 1 assessed as inhibition constant incubated for 1 hr prior to testing by phenol red based stopped-flow CO2 hydration assay).
Sequence of Carbonic anhydrase 1 (P00915 whole entry): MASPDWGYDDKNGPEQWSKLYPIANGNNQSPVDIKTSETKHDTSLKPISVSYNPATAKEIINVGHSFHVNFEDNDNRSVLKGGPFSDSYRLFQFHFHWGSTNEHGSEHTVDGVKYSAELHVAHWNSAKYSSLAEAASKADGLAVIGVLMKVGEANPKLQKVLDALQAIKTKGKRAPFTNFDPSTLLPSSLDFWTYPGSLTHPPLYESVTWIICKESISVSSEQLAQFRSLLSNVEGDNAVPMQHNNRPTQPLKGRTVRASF
With COc1ccc(CNc2ccc(S(N)(=O)=O)cc2)cc1 the Ki was > 50 µM.

The compounds below were run against Carbonic anhydrase 9 (Homo sapiens, UniProt Q16790) (assay: Inhibition of human carbonic anhydrase 9 assessed as inhibition constant incubated for 1 hr prior to testing by phenol red based stopped-flow CO2 hydration assay).
CCOP(=O)(OCC)C(Nc1ccc(S(N)(=O)=O)cc1)c1ccccc1F (stereo not drawn) gave a Ki of 0.0267 µM.
With CCOP(=O)(OCC)C(Nc1ccc(S(N)(=O)=O)cc1)c1ccc(Br)cc1 (stereo not drawn) the Ki was 0.153 µM.
CCOP(=O)(OCC)C(Nc1ccc(S(N)(=O)=O)cc1)c1ccc(C)cc1 (stereo not drawn) showed a Ki of 0.147 µM.
For CCOP(=O)(OCC)C(Nc1ccc(S(N)(=O)=O)cc1)c1ccc(OC)c(OC)c1 (stereo not drawn), the Ki was 0.118 µM.
CCOP(=O)(OCC)C(Nc1ccc(S(N)(=O)=O)cc1)c1c(Br)cccc1OC (stereo not drawn) gave a Ki of 0.346 µM.
In the case of CCOP(=O)(OCC)C(Nc1ccc(S(N)(=O)=O)cc1)c1cc(OC)c(OC)cc1OC (stereo not drawn), the Ki is reported as 0.249 µM.
For CCOP(=O)(OCC)C(Nc1ccc(S(N)(=O)=O)cc1)c1ccc(F)cc1 (stereo not drawn), the Ki was 0.0916 µM.
For CCOP(=O)(OCC)C(Nc1ccc(S(N)(=O)=O)cc1)c1cccc(F)c1 (stereo not drawn), the Ki was 0.0391 µM.
For CCOP(=O)(OCC)C(Nc1ccc(S(N)(=O)=O)cc1)c1cc(OC)ccc1OC (stereo not drawn), the Ki was 0.47 µM.
For CCOP(=O)(OCC)C(Nc1ccc(S(N)(=O)=O)cc1)c1ccc(SC)cc1 (stereo not drawn), the Ki was 0.0802 µM.
CCOP(=O)(OCC)C(Nc1ccc(S(N)(=O)=O)cc1)c1ccc(Cl)cc1 (stereo not drawn) gave a Ki of 0.142 µM.
CCOP(=O)(OCC)C(Nc1ccc(S(N)(=O)=O)cc1)c1cccc(Br)c1 (stereo not drawn) gave a Ki of 0.0613 µM.
Work on CCOP(=O)(OCC)C(Nc1ccc(S(N)(=O)=O)cc1)c1ccc(OC)cc1 (stereo not drawn) yielded a Ki of 0.14 µM.
For CCOP(=O)(OCC)C(Nc1ccc(S(N)(=O)=O)cc1)c1ccc(-c2ccccc2)cc1 (stereo not drawn), the Ki was 0.225 µM.
Work on CCOP(=O)(OCC)C(Nc1ccc(S(N)(=O)=O)cc1)c1ccccc1[N+](=O)[O-] (stereo not drawn) yielded a Ki of 0.293 µM.
Work on COc1ccc(CNc2ccc(S(N)(=O)=O)cc2)cc1 yielded a Ki of 0.883 µM.

What follows are compounds tested against Carbonic anhydrase 12 (Homo sapiens, UniProt O43570) (assay: Inhibition of human carbonic anhydrase 12 assessed as inhibition constant incubated for 1 hr prior to testing by phenol red based stopped-flow CO2 hydration assay).
Sequence of Carbonic anhydrase 12 (O43570 whole entry): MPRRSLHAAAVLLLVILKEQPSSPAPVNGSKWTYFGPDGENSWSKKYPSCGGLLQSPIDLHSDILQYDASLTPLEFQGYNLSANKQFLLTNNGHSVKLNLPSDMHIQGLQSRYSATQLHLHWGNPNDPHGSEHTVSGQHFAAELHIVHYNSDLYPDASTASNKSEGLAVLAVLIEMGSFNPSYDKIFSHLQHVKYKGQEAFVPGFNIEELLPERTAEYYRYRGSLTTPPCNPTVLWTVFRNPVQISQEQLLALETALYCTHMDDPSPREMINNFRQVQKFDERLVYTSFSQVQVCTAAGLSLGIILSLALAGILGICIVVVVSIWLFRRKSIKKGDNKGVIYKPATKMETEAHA
For COc1ccc(CNc2ccc(S(N)(=O)=O)cc2)cc1, the Ki was 0.0112 µM.
